US4708872A, “Antitumor antibiotic complex” (Bristol-Meyers Company, priority 1985, dated 1987)
Several values for one entry are separate records, joined by “and”; a condition that tells them apart may be missing. Equal values may be shown once. Read-outs that look alike come from different tables or passages of the source.

Experiments:
L-1210 leukemia [1] = conditions: days 1,4,7 iv; dose of preceding T/C line
L-1210 leukemia [2] = experiment: Intravenously implanted L-1210 leukemia, iv treatment; conditions: days 1,4,7 iv
B16 melanoma = conditions: qd 1-9 ip; dose of preceding T/C line
Description: (§1) Lymphocytic leukemia P-388, lymphoid leukemia L-1210, melanotic melanoma B16 and Lewis lung carcinoma were implanted intraperitoneally into male BDF1 mice at an inoculum size of 10^6, 10^5, 5×10^5 and 10^6 cells per mouse, respectively. Graded doses of test compounds were administered to the mice intraperitoneally 24 hours after the tumor inoculation.
(§2) Death or survival of the treated and non-treated mice was recorded daily, and the median survival time (MST) was calculated for each of the test (T) and control (C) groups. […] Second experiments were carried out by intravenous administration of BBM-1675 components against P-388 and L-1210 leukemias, which were inoculated intravenously at 5×10^5 and 10^4 cells per mouse, respectively.

Description for Lewis lung carcinoma: as §1, §2

Row | SMILES | MST (L-1210 leukemia [1]) [days] | MST (L-1210 leukemia [2]; 16 mg/kg/day) | Survivors on day 5 (L-1210 leukemia [2]; 16 mg/kg/day) | Survivors on day 45 (L-1210 leukemia [2]; 16 mg/kg/day) | MST (L-1210 leukemia [2]; dose of preceding T/C line) | Survivors on day 5 (L-1210 leukemia [2]; dose of preceding T/C line) | Survivors on day 5 (B16 melanoma) | Survivors on day 5 (Lewis lung carcinoma; mouse, in vivo, ip) | Survivors on day 5 (Lewis lung carcinoma; qd 1-11 ip, dose of preceding T/C line)
1 | COc1cccc2c1C(=O)c1c(O)c3c(c(O)c1C2=O)C[C@@](O)(C(=O)CO)C[C@@H]3O[C@H]1C[C@H](N)[C@H](O)[C@H](C)O1 [Adriamycin, adriamycin] | 9.0 | tox. | 2/6 | 0/6 | 12.0 days and 8.0 days | 6/6 | – | – | –
2 | CO[C@@H]1[C@H](O)C[C@@H](O[C@@H]2C[C@H](Oc3cc4cc5c(c(O)c4c(O)c3C)C(=O)[C@@H](O[C@H]3C[C@@H](O[C@H]4C[C@@H](O[C@H]6C[C@](C)(O)[C@@H](OC(C)=O)[C@H](C)O6)[C@H](O)[C@@H](C)O4)[C@H](O)[C@@H](C)O3)[C@H]([C@H](OC)C(=O)[C@@H](O)[C@@H](C)O)C5)O[C@H](C)[C@@H]2OC(C)=O)O[C@@H]1C [Chromomycin A3, chromomycin A3] | – | – | – | – | – | – | 6/6 | 5/5 | 6/6
